Experiments:
Assay in all cases: Inhibition Assay
Coagulation factor VIII [1] = target: T1, Coagulation factor VIII (Homo sapiens, UniProt P00451); details: 37 °C
Source text: Inhibition of factor VIII C2 domain.

Coagulation factor VIII [2] = target: T1, Coagulation factor VIII; details: pH 8
Method: Inhibition of factor VIII ELISA. The interaction between factor VIII and PS was measured by using an enzyme-linked immunoadsorbent assay (ELISA).

Coagulation factor VIII [3] = target: T1, Coagulation factor VIII; details: pH 7.9
Source text: Inhibition of factor X activation assay. A commercially available chromogenic assay that measures the rate of factor X activation to measure inhibiton of the cofactor function of factor VIII.

T1 sequence (P00451 20-759 limits assumed): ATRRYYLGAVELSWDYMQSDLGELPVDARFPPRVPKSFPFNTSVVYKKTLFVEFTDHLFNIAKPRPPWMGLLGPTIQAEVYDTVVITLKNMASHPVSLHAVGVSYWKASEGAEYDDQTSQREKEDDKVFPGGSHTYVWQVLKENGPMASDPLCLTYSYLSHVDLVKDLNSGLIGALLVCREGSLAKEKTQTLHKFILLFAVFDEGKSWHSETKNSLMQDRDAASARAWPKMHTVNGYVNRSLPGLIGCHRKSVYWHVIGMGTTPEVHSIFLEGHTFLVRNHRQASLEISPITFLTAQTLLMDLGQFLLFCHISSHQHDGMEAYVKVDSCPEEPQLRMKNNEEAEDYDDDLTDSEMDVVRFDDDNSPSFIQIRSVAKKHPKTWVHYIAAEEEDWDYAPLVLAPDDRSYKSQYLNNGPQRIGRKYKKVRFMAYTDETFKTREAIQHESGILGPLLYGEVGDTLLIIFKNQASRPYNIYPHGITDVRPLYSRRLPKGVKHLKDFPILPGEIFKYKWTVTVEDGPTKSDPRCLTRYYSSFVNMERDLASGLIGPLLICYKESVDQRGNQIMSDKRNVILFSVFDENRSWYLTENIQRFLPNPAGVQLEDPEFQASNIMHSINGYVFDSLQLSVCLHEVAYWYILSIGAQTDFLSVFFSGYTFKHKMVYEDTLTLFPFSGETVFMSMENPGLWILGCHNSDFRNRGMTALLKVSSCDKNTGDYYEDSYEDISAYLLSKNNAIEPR
T1 sequence (P00451 1668-2351 limits assumed): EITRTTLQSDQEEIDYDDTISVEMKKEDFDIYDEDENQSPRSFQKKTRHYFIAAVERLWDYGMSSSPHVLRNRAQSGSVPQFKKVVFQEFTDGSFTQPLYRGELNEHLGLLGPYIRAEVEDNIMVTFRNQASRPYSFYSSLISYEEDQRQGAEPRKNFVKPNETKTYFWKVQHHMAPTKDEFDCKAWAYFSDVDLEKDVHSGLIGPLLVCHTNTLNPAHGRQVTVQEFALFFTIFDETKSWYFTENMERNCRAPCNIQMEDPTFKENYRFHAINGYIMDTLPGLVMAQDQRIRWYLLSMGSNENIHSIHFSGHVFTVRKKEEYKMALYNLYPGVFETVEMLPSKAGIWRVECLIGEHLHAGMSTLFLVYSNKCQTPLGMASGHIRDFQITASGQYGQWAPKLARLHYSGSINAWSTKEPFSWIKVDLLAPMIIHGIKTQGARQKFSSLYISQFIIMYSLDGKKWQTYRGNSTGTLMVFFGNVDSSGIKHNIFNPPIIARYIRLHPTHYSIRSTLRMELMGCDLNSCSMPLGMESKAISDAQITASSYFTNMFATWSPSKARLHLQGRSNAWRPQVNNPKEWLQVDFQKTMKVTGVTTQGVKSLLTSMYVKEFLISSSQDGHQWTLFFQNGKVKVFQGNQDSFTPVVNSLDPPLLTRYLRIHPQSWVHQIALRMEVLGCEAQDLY

Structure (SMILES) | IC50 (Coagulation factor VIII [1]) [µM] | IC50 (Coagulation factor VIII [2]) [µM] | IC50 (Coagulation factor VIII [3]) [µM]
CCOc1ccc(-c2cc(C)n3nc(C(N)=O)cc3n2)cc1 | 26.8 |  | 
CC(C=Cc1ccco1)=NCCCCNC(=O)C=Cc1ccco1 [5247489] | 56.1 |  | 
CCOC(=O)c1c(NC(=S)NC(=O)c2ccccc2)sc2c1CCC(C)C2 (stereo unspecified) [5523453] | 27.7 |  | 
O=C1/C(=C/c2ccc(Br)o2)SC(=S)N1c1cccc(C(F)(F)F)c1 [5737176] | 6.66 | 9.25 | 8.5
O=C1/C(=C/c2ccc(I)o2)SC(=S)N1c1cccc(C(F)(F)F)c1 [5738875] | 5.65 | 6.83 | 5
O=C1/C(=C/c2ccc(Br)o2)SC(=S)N1c1ccc([N+](=O)[O-])cc1 [5739991] | 4.63 | 10.4 | 11.7
N=C(NN=Cc1ccc(F)cc1)NN=Cc1ccc(F)cc1 [5924029] | 24.5 |  | 
COc1cc(/C=C2/SC(=S)N(CC(=O)Nc3ccccn3)C2=O)cc(OC)c1OC [6126765] | 11.9 |  | 
CCOc1ccc(Cl)cc1/C=C1/SC(=S)N(CC)C1=O [6168356] | 49.6 |  | 
O=C1NC(=S)NC(=O)C1=Cc1ccc(-c2cc(Cl)c([N+](=O)[O-])cc2Cl)o1 [6190013] | 8.48 | 2.11 | 7.5
COc1cc(C=Nn2c(O)csc2=S)ccc1OCCOc1ccc(C(C)(C)C)cc1 [6209549] | 12.4 |  | 
O=C1/C(=C\c2ccc(Sc3ccc(Cl)cc3)o2)SC(=S)N1c1ccc([N+](=O)[O-])cc1 [6789536] | 5.85 | 4.81 | 5.6
O=C1/C(=C/c2ccc(-c3ccc(Cl)cc3Cl)o2)SC(=S)N1c1cccc(C(F)(F)F)c1 [8047577] | 2.44 | 2.56 | 2.1
O=C1NC(=S)NC(=O)C1=Cc1ccc(-c2ccc(Cl)c(C(=O)O)c2)o1 [8048422] | 4.17 | 3.89 | 6.7
O=C1NC(=S)NC(=O)C1=Cc1ccc(-c2cccc(C(=O)O)c2Cl)o1 [8056354] | 6.29 | 6.51 | 6.8

— BindingDB's records for doi:10.1016/j.chembiol.2004.08.006 (University of Washington, 2004)
